US7528132B2, “Kinase inhibitors” (Schering Corporation, priority 2005, dated 2009)

Molecular target: T1, Akt1 (Homo sapiens, UniProt P31749)
T1 construct: made in house; host or cells: Sf9 insect cells (baculovirus, pBlueBacHis2B)
Test: Akt1 kinase assay (33P phosphorylation of biotinylated peptide, Flash plates)
Format: biochemical
Conditions: read-out: IC50 (AKT1 inhibition)
Description: The assay described below measures the phosphorylation of a biotinylated peptide by active recombinant Akt1 and other kinase isoforms. The biotinylated peptide contains a consensus sequence derived from Akt substrate Gsk3 (Glycogen synthase kinase 3). The ^33P-labeled peptide substrate was captured by streptavidin-coated Flash plates.
Active recombinant Akt1 was expressed in Sf9 insect cells and purified as described by Kumar et al., Biochim. Biophys. Acta. Jun. 15, 2001, 1526(3), 257-268. Biotinylated peptide of the sequence Bio-ahx-RPRAASF was purchased from Syn Pep (Dublin, Calif., USA).
Cloning and Expression of Human Akt1 Sf9 Cells
Human Akt1 cDNA was amplified from a marathon-ready human lung cDNA library (Clonetech) using nested oligo primers as described below. The first round of amplification was carried out using the following primers; Akt1F1 ([…]) and Akt1R1 (TCCATC […]) and for the second round amplification, the primers of the following sequence were used; Akt1F2 (GGATCCTCGG […]) and AKT1R2 (GGTACCATCGTC […]). The PCR product was subcloned into pCRScript plasmid as a BamHI/KpnI fragment and the sequence of the cDNA was confirmed by DNA sequencing. This plasmid was used as a template for reamplification of Akt1 using appropriate primers for subcloning into pBlueBaHis2B into BamH1/EcoRI sites to generate an in frame fusion to (His)6 tag and an anti-Xpress antibody epitope tag at the N-terminus. This construct was sequenced to verify the junction sequences and used for generating a recombinant baculovirus. Growth of the recombinant virus, amplification and determination of viral titer were carried out according to the instructions from the manufacturer (InVitrogen, CA).
Purification of Akt1 from Sf9 Cells
Viral stocks were used to infect large scale Sf9 cells at a multiplicity of infection (MOI) of 2.5. Cells were maintained at 27° C. for 60 h and okadaic acid was added to the cultures to a concentration of 50 nM. Cells were harvested 4 h hours later by centrifugation at 1200 rpm for 30 min followed by freezing at −80° C. until further use. All purification steps were carried out at 4° C. Whole cell pellets were suspended in buffer A (20 mM sodium phosphate buffer pH 7.8, 500 mM NaCl, 1 mM sodium vanadate, 5 mM sodium fluoride, 40 mM β-glycerophosphate, 10 mM imidazole and protease inhibitor cocktail) and lysed using a microfluidizer. The cell extract was centrifuged at 16,000×g for 10 min to remove the debris and directly loaded onto Ni-NTA Superflow resin using a FPLC pump operated at 1 ml/min. The column was washed once with buffer A, once with wash buffer B (20 mM sodium phosphate pH 6.0, 1 mM sodium vanadate, 5 mM sodium fluoride and protease cocktail) and once with wash buffer B containing 0.05% Tween-20 followed by washing with buffer A until OD260 returned to basal level. Proteins were eluted with buffer A containing 200 mM imidazole. Fractions were analyzed by electrophoresis on 10% denaturing polyacrylamide gels and fractions containing 85% pure protein band at 60 KDa were pooled and dialyzed against buffer C (20 mM Tris-HCl pH 7.5, 0.5 mM EDTA,-2 mM DTT, 145 mM NaCl, 0.1 mM sodium vanadate, 5 mM sodium fluoride, 10 mM, β-glycerophosphate and 20% glycerol). Purified protein was stored as aliquots at −80° C. Protein concentrations were determined using BCA protein assay reagent A (Catalog #23228). To examine the identity of the proteins, 2 μg of purified protein was electrophoresed on SDS-polyacrylamide gels and stained with coomassie blue dye or transferred to nitrocellulose membrane and probed with anti-Akt and anti-phospho-specific Akt antibodies using enhanced chemiluminescence (ECL) reagent according to the protocol described by the manufacturer (Amersham).
The kinase assay was performed in 96 well plates at room temperature. Assay solutions and plates were preincubated at room temperature for 5 min. […]

T1 sequence (P31749 whole entry): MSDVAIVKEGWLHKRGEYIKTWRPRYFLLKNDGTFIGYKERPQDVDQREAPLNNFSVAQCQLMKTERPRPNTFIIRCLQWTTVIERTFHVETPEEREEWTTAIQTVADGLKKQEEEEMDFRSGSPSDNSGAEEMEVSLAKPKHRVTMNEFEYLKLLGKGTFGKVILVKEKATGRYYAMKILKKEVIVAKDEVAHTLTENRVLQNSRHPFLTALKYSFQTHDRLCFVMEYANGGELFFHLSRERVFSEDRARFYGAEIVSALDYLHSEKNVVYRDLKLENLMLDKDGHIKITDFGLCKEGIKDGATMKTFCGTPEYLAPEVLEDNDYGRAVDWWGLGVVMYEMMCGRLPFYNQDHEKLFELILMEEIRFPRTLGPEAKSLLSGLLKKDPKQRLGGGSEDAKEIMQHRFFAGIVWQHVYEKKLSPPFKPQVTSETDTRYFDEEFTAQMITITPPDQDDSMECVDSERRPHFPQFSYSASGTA

| IC50 [nM] | SMILES |
| --- | --- |
| 5.7 | Clc1n[nH]c2ccc(-c3nncc(N4CCN[C@@H](Cc5ccccc5)C4)n3)cc12 [Compound 56, 5-[(S)-3-benzylpiperazin-1-yl]-3-(3-chloroindazol-5-yl)-[1,2,4]triazine] |
| 6.1 | CC(C)C[C@H]1CN(c2cnnc(-c3ccc4[nH]nc(Cl)c4c3)n2)CCN1 [Compound 64, 3-(3-chloroindazol-5-yl)-5-[(S)-3-isobutylpiperazin-1-yl]-[1,2,4]triazine] |

Same assay, conditions: read-out: IC50 rating (AKT1 inhibition)

| IC50 [nM] | SMILES |
| --- | --- |
| > 1000 | Cc1n[nH]c2ccc(-c3nnc(Cl)c(N4CCN5CCCC5C4)n3)cc12 (stereo not drawn) [Compound 31, 6-chloro-5-(1,4-diazabicyclo[4.3.0]non-1-yl)-3-(3-methylindazol-5-yl)-[1,2,4]triazine] |
| > 1000 | Cc1n[nH]c2ccc(-c3nnc(Cl)c(N4CCN5CCCCC5C4)n3)cc12 (stereo not drawn) [Compound 32] |
| 100 to 1000 | Cc1n[nH]c2ccc(-c3nncc(N4CCCC(N)C4)n3)cc12 (stereo not drawn) [Compound 33, 5-(3-aminopiperidin-1-yl)-3-(3-methylindazol-5-yl)-[1,2,4]triazine] |
| 100 to 1000 | Cc1n[nH]c2ccc(-c3nnc(Cl)c(N4CCCC(N)C4)n3)cc12 (stereo not drawn) [Compound 34, 5-(3-aminopiperidin-1-yl)-6-chloro-3-(3-methylindazol-5-yl)-[1,2,4]triazine] |
| > 1000 | Cc1n[nH]c2ccc(-c3nncc(N4CCCC(CN)C4)n3)cc12 (stereo not drawn) [Compound 35, 5-(3-aminmethylopiperidin-1-yl)-3-(3-methylindazol-5-yl)-[1,2,4]triazine] |
| 100 to 1000 | Cc1n[nH]c2ccc(-c3nnc(Cl)c(N4CCCC(CN)C4)n3)cc12 (stereo not drawn) [Compound 36, 5-(3-aminmethyiopiperidin-1-yl)-6-chloro-3-(3-methylindazol-5-yl)-[1,2,4]triazine] |
| 100 to 1000 | Cc1n[nH]c2ccc(-c3nncc(N4CCC(N)C4)n3)cc12 (stereo not drawn) [Compound 37, 5-(3-aminopyrrolidin-1-yl)-3-(3-methylindazol-5-yl)-[1,2,4]triazine] |
| < 100 | Cc1n[nH]c2ccc(-c3nnc(Cl)c(N4CCC(N)C4)n3)cc12 (stereo not drawn) [Compound 38, 5-(3-aminopyrrolidin-1-yl)-6-chloro-3-(3-methylindazol-5-yl)-[1,2,4]triazine] |
| > 1000 | COC(=O)C1CN(c2cnnc(-c3ccc4[nH]nc(C)c4c3)n2)CCN1 (stereo not drawn) [Compound 39] |
| > 1000 | COC(=O)C1CN(c2nc(-c3ccc4[nH]nc(C)c4c3)nnc2Cl)CCN1 (stereo not drawn) [Compound 40] |
| 100 to 1000 | Cc1n[nH]c2ccc(-c3nncc(N4CCNC5(CCCC5)C4)n3)cc12 [Compound 41, 5-(6,9-diaza-spiro[4.5]dec-9-yl)-3-(3-methylindazol-5-yl)-[1,2,4]triazine] |
| 100 to 1000 | Cc1n[nH]c2ccc(-c3nncc(N4CCN[C@H](c5ccccc5)C4)n3)cc12 [Compound 42, 3-(3-methylindazol-5-yl)-5-[(R)-3-phenylpiperazin-1-yl]-[1,2,4]triazine] |
| 100 to 1000 | Cc1n[nH]c2ccc(-c3nnc(Cl)c(N4CCN[C@H](c5ccccc5)C4)n3)cc12 [Compound 43, 6-chloro-3-(3-methylindazol-5-yl)-5-[(R)-3-phenylpiperazin-1-yl]-[1,2,4]triazine] |
| < 100 | Cc1n[nH]c2ccc(-c3nncc(N4CCNC5(CCCCC5)C4)n3)cc12 [Compound 44, 5-(1,4-diaza-spiro[5.5]undec-4-yl)-3-(3-methylindazol-5-yl)-[1,2,4]triazine] |
| < 100 | Cc1n[nH]c2ccc(-c3nncc(N4CCNC(Cc5ccc(F)cc5)C4)n3)cc12 (stereo not drawn) [Compound 45, 5-[3-(4-fluorobenzyl)piperazin-1-yl]-3-(3-methylindazol-5-yl)-[1,2,4]triazine] |
| 100 to 1000 | Cc1n[nH]c2ccc(-c3nncc(N4CCNCC4)n3)cc12 [Compound 46, 3-(3-methylindazol-5-yl)-5-(piperazin-1-yl)-[1,2,4]triazine] |
| < 100 | Cc1n[nH]c2ccc(-c3nncc(N4CCNC(Cc5cccc(F)c5)C4)n3)cc12 (stereo not drawn) [Compound 47, 5-[3-(3-fluorobenzyl)piperazin-1-yl]-3-(3-methylindazol-5-yl)-[1,2,4]triazine] |

| IC50 [nM] | SMILES |
| --- | --- |
| < 100 | Cc1n[nH]c2ccc(-c3nncc(N4CCNC(Cc5ccccc5F)C4)n3)cc12 (stereo not drawn) [Compound 48, 5-[3-(2-fluorobenzyl)piperazin-1-yl]-3-(3-methylindazol-5-yl)-[1,2,4]triazine] |
| > 1000 | c1ccc(CNc2nnc(-c3ccc4[nH]nc(-c5ccccc5)c4c3)nc2N2CCNCC2)cc1 [Compound 53, 6-Benzylamino-3-(3-phenylindazol-5-yl)-5-(piperazin-1-yl)-[1,2,4]triazine] |
| 100 to 1000 | Cc1n[nH]c2ccc(-c3nncc(N4CCNC(Cc5ccccc5)(Cc5ccccc5)C4)n3)cc12 [Compound 54, 5-(3,3-dibenzylpiperazin-1-yl)-3-(3-methylindazol-5-yl)-[1,2,4]triazine] |
| < 100 | c1ccc(C[C@H]2CN(c3cnnc(-c4ccc5[nH]ncc5c4)n3)CCN2)cc1 [Compound 55, 5-[(S)-3-benzylpiperazin-1-yl]-3-indazol-5-yl-[1,2,4]triazine] |
| < 100 | Clc1n[nH]c2ccc(-c3nncc(N4CCN[C@@H](Cc5ccccc5)C4)n3)cc12 [Compound 56, 5-[(S)-3-benzylpiperazin-1-yl]-3-(3-chloroindazol-5-yl)-[1,2,4]triazine] |
| 100 to 1000 | Cc1n[nH]c2ccc(-c3nncc(N4CCNC(Cc5cccnc5)C4)n3)cc12 (stereo not drawn) [Compound 57, 3-(3-Methylindazol-5-yl)-5-[3-(pyridin-3-ylmethyl)piperazin-1-yl]-[1,2,4]triazine] |
| > 1000 | Cc1n[nH]c2ccc(-c3nncc(N4CCNC(Cc5ccccn5)C4)n3)cc12 (stereo not drawn) [Compound 58, 3-(3-methylindazol-5-yl)-5-[3-(pyridin-2-ylmethyl)piperazin-1-yl]-[1,2,4]triazine] |
| 100 to 1000 | Cc1n[nH]c2ccc(-c3nncc(N4CCCC(Cc5ccccc5)C4)n3)cc12 (stereo not drawn) [Compound 59, 5-(3-benzylpiperidin-1-yl)-3-(3-methylindazol-5-yl)-[1,2,4]triazine] |
| 100 to 1000 | Cc1n[nH]c2ccc(-c3nncc(N4CCN(CCO)[C@@H](Cc5ccccc5)C4)n3)cc12 [Compound 60, 5-[(S)-3-benzyl-4-hydroxyethyl-piperazin-1-yl]-3-(3-methylindazol-5-yl)-[1,2,4]triazine] |
| < 100 | CC(C)C[C@H]1CN(c2cnnc(-c3ccc4[nH]ncc4c3)n2)CCN1 [Compound 61, 3-indazol-5-yl-5-[(S)-3-isobutylpiperazin-1-yl]-[1,2,4]triazine] |
| 100 to 1000 | CCOC(=O)C1(Cc2ccccc2)CCCN(c2cnnc(-c3ccc4[nH]nc(C)c4c3)n2)C1 (stereo not drawn) [Compound 62, 5-(3-benzyl-3-ethoxycarbonylpiperidin-1-yl)-3-(3-methylindazol-5-yl)-[1,2,4]triazine] |
| 100 to 1000 | Cc1n[nH]c2ccc(-c3nncc(N4CCCC(CO)(Cc5ccccc5)C4)n3)cc12 (stereo not drawn) [Compound 63] |
| < 100 | CC(C)C[C@H]1CN(c2cnnc(-c3ccc4[nH]nc(Cl)c4c3)n2)CCN1 [Compound 64, 3-(3-chloroindazol-5-yl)-5-[(S)-3-isobutylpiperazin-1-yl]-[1,2,4]triazine] |
| > 1000 | Cc1n[nH]c2ccc(-c3nncc(N4CCCC(Cc5ccccc5)(C(=O)O)C4)n3)cc12 (stereo not drawn) [Compound 65] |
| > 1000 | COC(=O)C1(Cc2ccccc2)CCCN(c2cnnc(-c3ccc4[nH]nc(C)c4c3)n2)C1 (stereo not drawn) [Compound 66] |
| > 1000 | Nc1n[nH]c2ccc(-c3nncc(N4CCN[C@@H](Cc5ccccc5)C4)n3)cc12 [Compound 67, 3-(3-aminoindazol-5-yl)-5-[(S)-3-benzylpiperazin-1-yl]-[1,2,4]triazine] |
| 100 to 1000 | Cc1n[nH]c2ccc(-c3nncc(N4CCNC(Cc5ccncc5)C4)n3)cc12 (stereo not drawn) [Compound 68, 3-(3-methylindazol-5-yl)-5-[3-(pyridin-4-ylmethyl)piperazin-1-yl]-[1,2,4]triazine] |
